Test results reported in US20050202407A1, “Methods and assays for screening anti-neoplastic therapeutic agents” (Baylor College of Medicine, priority 2003, published 2005).

What was measured:
LNCaP cells = test: Viability assay with MEK inhibitors
Protocol: (§1) Cells were infected or transfected in six-well plates. Forty-eight hours after infection or transfection, cells were treated with 1 μM Tg for the time indicated. At the end of the treatments MTS assays were performed using CellTiter 96 aqueous one solution reagent from Promega by a modified version of the procedure. Briefly 300 μl of MTS solution was added to each well and incubated for 1 h at 37° C. One milliliter of reaction or medium mix was transferred from each well to an Eppendorf tube and then centrifuged in a microcentrifuge for 5 min at 4,000 rpm (˜3,000×g). One hundred microliters of supernatant was transferred to each well of a 96-well plate, and the relative viability was determined by the measurement of absorbance at 490 nm in a 96-well plate reader. […] Apoptotic morphology was analyzed with phase-contrast fluorescence microscopy after incubation with 0.2 μg of 4′6′-dismidino-2-phenylindole (DAPI) per ml. The activities of caspases in the cell lysates were analyzed by Western blotting using specific antibodies recognizing procaspases or cleaved forms of caspases, followed by quantitative intensity analysis using software (GelExpert; Nucleo Vision) and normalized to the intensity of β-actin in the same sample.

ERK1/2 = test: Phosphorylated ERK1/2 by Western blot; type: cell-based, human; conditions: Adcav-1- or AdRSV-infected cells
Protocol: Unless specifically indicated, immunoprecipitation (IP) was performed as follows. Cells were washed with ice-cold phosphate-buffered saline (PBS), lysed on the plates by incubation for 10 min on ice with IP lysis buffer, which consists of 20 mM Tris-HCl (pH 7.5), 150 mM NaCl, 1 mM EDTA, 1 mM EGTA, 1% Triton X-100, 1 mM β-glycerophosphate, 60 mM octylglucoside and protease inhibitor cocktail. Cells were then scraped off the dish, transferred to microcentrifuge tubes, placed on ice for 20 min, and centrifuged for 10 min at high speed in a microcentrifuge at 4° C. The supernatant (cell lysate) was transferred to a fresh tube and frozen at −80° C. until use. Typically, 500 μg of cell lysate proteins were diluted to 500 μl with IP lysis buffer and precleared by incubation with 3 μg of the corresponding immunoglobulin G (IgG) from […] for 30 min at 4° C. on a rocker, followed by the addition of 50 μl of IP lysis buffer-prewashed protein A or G plus agarose and incubation for another 1 h. The cleared cell lysate was incubated with 3 μg of specific antibody or the corresponding IgG overnight at 4° C. on a rocker. […] For regular Western blot analysis, protein concentration in cell lysates was determined by the Bio-Rad protein assay, and 30 μg of protein from each sample was loaded on the gel. β-Actin served as a loading control.

PI3-K = PI3-K activity assay (TLC); type: cell-based, human; conditions: 1 μM Tg for 48 h; cav-1-expressing and control LNCaP cells
Protocol: Cell lysates were prepared as described above for the Akt activity assay. PI3-K activity assays were performed as described below. Briefly, 500 μg of cell lysate proteins were immunoprecipitated with monoclonal antibody against phosphotyrosine for 3 h at 4° C. with gentle rocking, and the beads were washed twice with lysis buffer and twice with PI3-K assay buffer (20 mM Tris [pH 7.5], 100 mM NaCl, 0.5 mM EGTA, 20 mM MgCl2). PI was dissolved in chloroform (5 mg/ml) and diluted to 0.5 mg/ml with PI3-K assay buffer, followed by sonication. […] Five microliters of washed chloroform phase from each sample was loaded on a TLC plate and analyzed by ascending chromatography in chloroform-methanol-29.5% ammonium hydroxide-water (90:90:8:19), followed by autoradiography.
Protein expression levels and kinase activities of PI3-K, PDK1, and Akt were determined in cav-1-expressing or vector control LNCaP cells before and after treatment with 1 μM Tg for 48 h (+Tg): (A) PI3-K kinase assay by TLC (top gel); (B) PDK1 IP kinase assay; (C) Akt IP kinase assay using recombinant GSK3 as a substrate. Total protein and phosphorylated protein (indicated by P-prefix before protein name) of each kinase were analyzed and presented in each blot. β-Actin served as a loading control. […]

PDK1 = PDK1 IP kinase assay; type: cell-based, human; conditions: 1 μM Tg for 48 h; LNCaP cells
Protocol: Cell lysates were prepared as described above. PDK1 activity assay was performed according to the manufacturer's protocol (Upstate Biotechnology). Radioactivity that remained on the P81 paper was read with TopCount (Packard).
Protein expression levels and kinase activities of PI3-K, PDK1, and Akt were determined in cav-1-expressing or vector control LNCaP cells before and after treatment with 1 μM Tg for 48 h (+Tg): (A) PI3-K kinase assay by TLC (top gel); (B) PDK1 IP kinase assay; (C) Akt IP kinase assay using recombinant GSK3 as a substrate. Total protein and phosphorylated protein (indicated by P-prefix before protein name) of each kinase were analyzed and presented in each blot. β-Actin served as a loading control. There was no difference in protein expression levels for PI3-K in cav-1-expressing cells to control vector-infected cells (FIG. 2A). Although PI3-K activity was reduced by Tg treatment, no difference was found between cav-1-expressing and control cells (FIG. 2A). Tg treatment also led to reduced PDK1 activity; however, compared with control RSV-infected cells, PDK1 activity was approximately 17% higher in cav-1-expressing cells and approximately 30% higher in Tg-treated cav-1-expressing cells (FIG. 2B). In the same lysates, there was no difference in PDK1 protein expression (FIG. 2B).

[1] = Viability assay with MEK inhibitors; conditions: human
Protocol: as §1

PP1 (catalytic subunit) = molecular target: T1, PP1 (catalytic subunit) (Oryctolagus cuniculus, UniProt P62139); test: In vitro malachite green phosphatase assay with purified cav-1; type: biochemical, rabbit; conditions: 100 ng purified cav-1, 0.02 U PP1
T1 construct: purchased New England BioLabs
T1 sequence (P62139 whole entry): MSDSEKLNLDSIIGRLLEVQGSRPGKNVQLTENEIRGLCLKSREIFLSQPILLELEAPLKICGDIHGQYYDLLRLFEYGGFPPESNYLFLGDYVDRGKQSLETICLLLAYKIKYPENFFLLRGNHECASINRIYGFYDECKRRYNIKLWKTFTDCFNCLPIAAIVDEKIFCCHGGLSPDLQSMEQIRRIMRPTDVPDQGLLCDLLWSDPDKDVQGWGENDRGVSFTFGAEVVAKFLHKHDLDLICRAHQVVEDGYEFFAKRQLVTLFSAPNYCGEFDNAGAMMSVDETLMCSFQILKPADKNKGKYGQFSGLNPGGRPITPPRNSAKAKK
Protocol: (§2) PP1 (catalytic subunit) (0.02 U) or PP2A (core enzyme) (0.01 U) was incubated with or without 100 ng of purified cav-1 protein for 1 h at 4° C. Phosphatase assay buffer and a phosphopeptide (K-R-pT-1-R-R) were added to a final volume of 50 μl. Reactions were initialed by the addition of 200 μM phosphopeptide, and reaction mixtures were incubated at room temperature for 10 min. Reactions were terminated by the addition of 100 μl of malachite green solution. Activities of PP1 and PP2A were determined by the measurement of absorbance at 620 nm.
(§3) To determine whether the effects of cav-1 on PP1 and PP2A are direct and whether cav-1 interacts with and inhibits PP1 and PP2A in vitro, in vitro IP experiments were performed using purified His-V5-tagged human cav-1, PP1 (C subunit), and PP2A (core enzyme). […] The results of in vitro phosphatase assays indicate that the addition of cav-1 reduced PP1 and PP2A activities by approximately 30% under these basic conditions (FIG. 3F). Briefly, cells were treated with purified cav-1 (¢) or not treated with purified cav-1 (£) and relative activity was determined by measuring the optical density at 620 nm (OD620).

PP2A (core enzyme) = molecular target: T2, PP2A (core enzyme) (Homo sapiens, UniProt P67775); test: as above; type: biochemical; conditions: 100 ng purified cav-1, 0.01 U PP2A
T2 construct: purchased Upstate Biotechnology
T2 sequence (P67775 whole entry): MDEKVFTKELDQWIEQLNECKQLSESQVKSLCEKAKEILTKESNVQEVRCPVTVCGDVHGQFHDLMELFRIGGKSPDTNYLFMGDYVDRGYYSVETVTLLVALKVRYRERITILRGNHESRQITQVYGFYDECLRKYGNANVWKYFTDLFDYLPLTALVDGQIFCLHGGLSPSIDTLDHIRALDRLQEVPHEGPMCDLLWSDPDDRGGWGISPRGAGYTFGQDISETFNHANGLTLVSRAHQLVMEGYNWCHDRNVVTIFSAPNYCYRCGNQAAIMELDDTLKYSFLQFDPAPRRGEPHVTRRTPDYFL
T2 sequence (P30153 2-589 partner limits assumed): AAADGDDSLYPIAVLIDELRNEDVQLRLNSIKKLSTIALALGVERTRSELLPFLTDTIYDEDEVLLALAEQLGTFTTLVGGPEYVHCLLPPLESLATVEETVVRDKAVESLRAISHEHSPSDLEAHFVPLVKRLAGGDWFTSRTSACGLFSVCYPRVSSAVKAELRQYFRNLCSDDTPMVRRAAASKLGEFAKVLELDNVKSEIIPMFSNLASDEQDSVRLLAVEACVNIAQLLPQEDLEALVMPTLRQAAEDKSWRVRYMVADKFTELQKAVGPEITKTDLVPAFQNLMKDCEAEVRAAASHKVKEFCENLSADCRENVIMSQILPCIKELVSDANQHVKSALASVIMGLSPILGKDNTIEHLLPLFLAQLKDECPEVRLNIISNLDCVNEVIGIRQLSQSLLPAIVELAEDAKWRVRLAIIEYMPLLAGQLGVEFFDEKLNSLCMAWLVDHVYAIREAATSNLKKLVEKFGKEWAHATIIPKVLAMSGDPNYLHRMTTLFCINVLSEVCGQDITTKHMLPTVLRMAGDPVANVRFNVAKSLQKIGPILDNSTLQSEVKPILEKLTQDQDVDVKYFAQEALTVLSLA
Protocol: as §2, §3

For `COc1cccc(-c2cc(=O)c3ccccc3o2)c1N` [PD98059], the “reduction of cell viability” value (LNCaP cells) was roughly 20% and the “phosphorylated ERK1/2” value (ERK1/2) was “reduction”.

With `C/C=C(/C)C(=O)O[C@H]1C(C)=C2[C@H]([C@@H]1OC(=O)CCCCCCC)[C@@](C)(OC(C)=O)C[C@H](OC(=O)CCC)[C@@]1(O)[C@H]2OC(=O)[C@@]1(C)O` [Tg, thapsigargin] the PI3-K activity (PI3-K) was “reduced” and the PDK1 activity (PDK1) was “reduced”.

With `N#CC(=C(/N)Sc1ccccc1N)/C(C#N)=C(\N)Sc1ccccc1N` [U0126] the cytotoxicity [1] was roughly 15% and the “phosphorylated ERK1/2” value (ERK1/2) was “reduction”.

B1: purified cav-1: purified His-V5-tagged human cav-1 protein (protein, UniProt Q03135 2-178, looked up)
Caveolin-1: SGGKYVDSEGHLYTVPIREQGNIYKPNNKAMADELSEKQVYDAHTKEIDLVNRDPKHLNDDVVKIDFEDVIAEPEGTHSFDGIWKASFTTFTVTKYWFYRLLSALFGIPMALIWGIYFAILSFLHIWAVVPCIKSFLIEIQCISRVYSIYVHTVCDPLFEAVGKIFSNVRINLQKEI
modifications: His-V5 tag
notes: purified His-V5-tagged human cav-1 protein
With B1 the “reduction of PP1 activity” value (PP1 (catalytic subunit)) was “approximately 30%” and the “reduction of PP2A activity” value (PP2A (core enzyme)) was “approximately 30%”.
